In patent US12583818B2 (DAEGU-GYEONGBUK MEDICAL INNOVATION FOUNDATION, priority 2020, dated 2026):
Like-named read-outs stand apart in the source and are kept apart here.

Experiments:
[1] = test system: A2780 cells (ovarian cancer cells); test: Cell viability of A2780 cells (Cell-titer Glo); type: cell-based; conditions: Homo sapiens
Procedure: (§1) In order to confirm the inhibitory effect of the compound represented by formula 1 according to the present invention on the growth of MCF7, MCF7-SP, A2780 or A2780-SP cells, the following experiment was performed, and the results are shown in Tables 4 and 5 below.
In addition, A2780 cells (ovarian cancer cells) were plated in a 96-well plate at the density of 3000 viable cells per well, and cultured in RPMI-1640 medium supplemented with 10% FBS and 1% penicillin/streptomycin.
(§2) On the next day of culture, the cells were treated with the compound of Examples 57, and 69 to 144, followed by culture for 3 days. Cell viability was evaluated by Cell-titer Glo (Promega, WC, USA), and luciferase activity was detected using a Tecan plate reader (Biocompare, USA).

[2] = biological target: T1, Pin1 (Homo sapiens, UniProt Q13526); test: Evaluation of Pin1 enzyme inhibitory activity (Sensolyte Green Pin1 assay kit); type: biochemical
T1 construct: purchased Anaspec
T1 sequence (Q13526 whole entry): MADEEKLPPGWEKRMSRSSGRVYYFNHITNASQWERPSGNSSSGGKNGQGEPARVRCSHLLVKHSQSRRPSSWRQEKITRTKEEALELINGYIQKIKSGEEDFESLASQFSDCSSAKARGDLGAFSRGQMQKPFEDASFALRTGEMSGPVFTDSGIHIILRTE
Summary of the method: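 Compounds were tested at four working concentrations (100, 10, 1, 0.1 μM), mixed with Pin1 (50 μg/ml stock dilution), developer and substrate (1 μM as prepared). Fluorescence at 490/520 nm was recorded after 2 h in the dark at room temperature. Results were grouped into grades A–D by inhibiting concentration.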

[3] = test system: A2780-SP cells (ovarian cancer stem cells); test: Sphere cell viability of A2780-SP cells (Cell-titer Glo); type: cell-based
Procedure: as §1
On the other hand, A2780-SP cells (ovarian cancer stem cells) were plated in an Ultra-Low Attachment round bottom 96-well plate (corning) at the density of 1,500 viable cells per well, and cultured in cancer stem cell medium. The cancer stem cell medium is composed of the neurobasal medium supplemented with 20 ng/ml of bFGF, 10 ng/ml of EGF, […] of amphotericin B, HEPES, Glutamax and B27.
as §2, with “for 8” for “for 3”, “days. The medium containing the compound was added thereto once again on the 4th day. Sphere cell” for “days. Cell”

[4] = 72 h, cell viability, culture for 3 days, read-out: A2780
[5] = Table 2, read-out: concentration at which Pin1 inhibitory activity was exhibited
[6] = concentration at which the Pin1 enzyme activity is inhibited, 2 hours at room temperature, fluorescence 490 nm/520 nm, read-out: Pin 1 inhibition
[7] = 192 h, sphere cell viability, culture for 8 days, read-out: A2780-SP
[8] = Table 5, read-out: the concentration (second list of b710, cell line not named; matches A2780-SP column)
[9] = A2780, Table 5, read-out: A2780 cell concentration

Cc1nccn1CCCOc1ccc(S(=O)(=O)NCCCc2c[nH]c3ccc(Cl)cc23)cc1 [Example 161, N-(3-(5-chloro-1H-indol-3-yl)propyl)-4-(3-(2-methyl-1H-imidazol-1-yl)propoxy)benzenesulfonamide]
IC50 [1, 4]: > 10 µM | IC50 [2, 5]: < 1 µM | IC50 [2, 6]: < 1 µM | IC50 [3, 7]: < 1 µM | IC50 [3, 8]: < 1 µM

O=S(=O)(NCCCc1c[nH]c2c(Cl)cc(Cl)cc12)c1ccc(OCCCN2CCNCC2)cc1 [Example 164, N-(3-(5,7-dichloro-1H-indol-3-yl)propyl)-4-(3-(piperazin-1-yl)propoxy)benzenesulfonamide]
IC50 [1, 4]: 1 to 10 µM | IC50 [1, 9]: < 10 µM | IC50 [2, 5]: < 1 µM | IC50 [2, 6]: < 1 µM | IC50 [3, 7]: < 1 µM | IC50 [3, 8]: < 1 µM

CN1CCN(CCCOc2ccc(S(=O)(=O)NCCCc3c[nH]c4c(Cl)cc(Cl)cc34)cc2)CC1 [Example 165, N-(3-(5,7-dichloro-1H-indol-3-yl)propyl)-4-(3-(4-methylpiperazin-1-yl)propoxy)benzenesulfonamide]
IC50 [1, 4]: 1 to 10 µM | IC50 [1, 9]: < 10 µM | IC50 [2, 5]: < 1 µM | IC50 [2, 6]: < 1 µM | IC50 [3, 7]: < 1 µM | IC50 [3, 8]: < 1 µM

O=S(=O)(NCCCc1c[nH]c2ccc(Cl)cc12)c1ccc(OCCCn2cnc(Cl)c2Cl)cc1 [Example 166, N-(3-(5-chloro-1H-indol-3-yl)propyl)-4-(3-(4,5-dichloro-1H-imidazol-1-yl)propoxy)benzenesulfonamide]
IC50 [1, 4]: > 10 µM | IC50 [2, 5]: < 1 µM | IC50 [2, 6]: < 1 µM | IC50 [3, 7]: 1 to 10 µM

CN1CCN(CCCOc2ccc(S(=O)(=O)NCCCc3n[nH]c4ccc(Cl)cc34)cc2)CC1 [Example 167, N-(3-(5-chloro-1H-indazole-3-yl)propyl)-4-(3-(4-methylpiperazine-1-yl)propoxy)benzenesulfonamide]
IC50 [1, 4]: 1 to 10 µM | IC50 [1, 9]: < 10 µM | IC50 [2, 5]: < 1 µM | IC50 [2, 6]: < 1 µM | IC50 [3, 7]: < 1 µM | IC50 [3, 8]: < 1 µM

O=S(=O)(NCCCc1n[nH]c2ccc(Cl)cc12)c1ccc(OCCCN2CCNCC2)cc1 [Example 168, N-(3-(5-chloro-1H-indazol-3-yl)propyl)-4-(3-(piperazin-1-yl)propoxy)benzenesulfonamide]
IC50 [1, 4]: > 10 µM | IC50 [2, 5]: < 1 µM | IC50 [2, 6]: < 1 µM | IC50 [3, 7]: < 1 µM | IC50 [3, 8]: < 1 µM

CN1CCN(CCCOc2ccc(S(=O)(=O)NCCCc3c[nH]c4ncc(Cl)cc34)cc2)CC1 [Example 169, N-(3-(5-chloro-1H-pyrrolo[2,3-b]pyridin-3-yl)propyl)-4-(3-(4-methylpiperazin-1-yl)propoxy)benzenesulfonamide]
IC50 [1, 4]: 1 to 10 µM | IC50 [1, 9]: < 10 µM | IC50 [2, 5]: < 1 µM | IC50 [2, 6]: < 1 µM | IC50 [3, 7]: < 1 µM | IC50 [3, 8]: < 1 µM

O=S(=O)(NCCCc1c[nH]c2ncc(Cl)cc12)c1ccc(OCCCN2CCNCC2)cc1 [Example 170, N-(3-(5-chloro-1H-pyrrolo[2,3-b]pyridin-3-yl)propyl)-4-(3-(piperazin-1-yl)propoxy)benzenesulfonamide]
IC50 [1, 4]: 1 to 10 µM | IC50 [1, 9]: < 10 µM | IC50 [2, 5]: < 1 µM | IC50 [2, 6]: < 1 µM | IC50 [3, 7]: < 1 µM | IC50 [3, 8]: < 1 µM

CN1CCN(C[C@@H](O)COc2ccc(S(=O)(=O)NCCCc3c[nH]c4ccc(Cl)cc34)cc2)CC1 [Example 171, (R)—N-(3-(5-chloro-1H-indole-3-yl)propyl)-4-(2-hydroxy-3-(4-methylpiperazine-1-yl)propoxy)benzenesulfonamide]
IC50 [1, 4]: > 10 µM | IC50 [2, 5]: < 1 µM | IC50 [2, 6]: < 1 µM | IC50 [3, 7]: < 1 µM | IC50 [3, 8]: < 1 µM

O=S(=O)(NCCCc1c[nH]c2ccc(Cl)cc12)c1ccc(OC[C@H](O)CN2CCNCC2)cc1 [Example 172, (R)—N-(3-(5-chloro-1H-indol-3-yl)propyl)-4-(2-hydroxy-3-(piperazin-1-yl)propoxy)benzenesulfonamide]
IC50 [1, 4]: > 10 µM | IC50 [2, 5]: < 1 µM | IC50 [2, 6]: < 1 µM | IC50 [3, 7]: < 1 µM | IC50 [3, 8]: < 1 µM

CN1CCN(C[C@H](O)COc2ccc(S(=O)(=O)NCCCc3c[nH]c4ccc(Cl)cc34)cc2)CC1 [Example 173, (S)—N-(3-(5-chloro-1H-indol-3-yl)propyl)-4-(2-hydroxy-3-(4-methylpiperazin-1-yl)propoxy)benzenesulfonamide]
IC50 [1, 4]: 1 to 10 µM | IC50 [1, 9]: < 10 µM | IC50 [2, 5]: < 1 µM | IC50 [2, 6]: < 1 µM | IC50 [3, 7]: < 1 µM | IC50 [3, 8]: < 1 µM

O=S(=O)(NCCCc1c[nH]c2ccc(Cl)cc12)c1ccc(OC[C@@H](O)CN2CCNCC2)cc1 [Example 174, (S)—N-(3-(5-chloro-1H-indol-3-yl)propyl)-4-(2-hydroxy-3-(piperazin-1-yl)propoxy)benzenesulfonamide]
IC50 [1, 4]: > 10 µM | IC50 [2, 5]: < 1 µM | IC50 [2, 6]: < 1 µM | IC50 [3, 7]: < 1 µM | IC50 [3, 8]: < 1 µM

Cc1ncn(CCCOc2ccc(S(=O)(=O)NCCCc3c[nH]c4ccc(Cl)cc34)cc2)c1C [Example 175, N-(3-(5-chloro-1H-indol-3-yl)propyl)-4-(3-(4,5-dimethyl-1H-imidazol-1-yl)propoxy)benzenesulfonamide]
IC50 [1, 4]: 1 to 10 µM | IC50 [1, 9]: < 10 µM | IC50 [2, 5]: < 1 µM | IC50 [2, 6]: < 1 µM | IC50 [3, 7]: < 1 µM | IC50 [3, 8]: < 1 µM

Cc1nc(C)n(CCCOc2ccc(S(=O)(=O)NCCCc3c[nH]c4ccc(Cl)cc34)cc2)c1C [Example 176, N-(3-(5-chloro-1H-indol-3-yl)propyl)-4-(3-(2,4,5-trimethyl-1H-imidazol-1-yl)propoxy)benzenesulfonamide]
IC50 [1, 4]: 1 to 10 µM | IC50 [1, 9]: < 10 µM | IC50 [2, 5]: < 1 µM | IC50 [2, 6]: < 1 µM | IC50 [3, 7]: < 1 µM | IC50 [3, 8]: < 1 µM

CN1CCN(CCCOc2ccc(S(=O)(=O)NCC3CCc4[nH]c5ccc(Cl)cc5c4C3)cc2)CC1 (centres unmarked) [Example 177, N-((6-chloro-2,3,4,9-tetrahydro-1H-carbazole-3-yl)methyl) 4-(3-(4-methylpiperazine-1-yl)propoxy)benzenesulfonamide]
IC50 [1, 4]: 1 to 10 µM | IC50 [1, 9]: < 10 µM | IC50 [2, 5]: < 1 µM | IC50 [2, 6]: < 1 µM | IC50 [3, 7]: < 1 µM | IC50 [3, 8]: < 1 µM

O=S(=O)(NCC1CCc2[nH]c3ccc(Cl)cc3c2C1)c1ccc(OCCCN2CCNCC2)cc1 (centres unmarked) [Example 178, N-((6-chloro-2,3,4,9-tetrahydro-1H-carbazol-3-yl)methyl)-4-(3-(piperazin-1-yl)propoxy)benzenesulfonamide]
IC50 [1, 4]: 1 to 10 µM | IC50 [1, 9]: < 10 µM | IC50 [2, 5]: < 1 µM | IC50 [2, 6]: < 1 µM | IC50 [3, 7]: < 1 µM | IC50 [3, 8]: < 1 µM

O=S(=O)(NCCCc1c[nH]c2cc(Cl)c(Cl)cc12)c1ccc(OCCCN2CCNCC2)cc1 [Example 183, N-(3-(5,6-dichloro-1H-indol-3-yl)propyl)-4-(3-(piperazin-1-yl)propoxy)benzenesulfonamide]
IC50 [1, 4]: > 10 µM | IC50 [2, 5]: < 1 µM | IC50 [2, 6]: < 1 µM | IC50 [3, 7]: < 1 µM | IC50 [3, 8]: < 1 µM

CN1CCN(CCCOc2ccc(S(=O)(=O)NCCCc3c[nH]c4cc(Cl)c(Cl)cc34)cc2)CC1 [Example 184, N-(3-(5,6-dichloro-1H-indol-3-yl)propyl)-4-(3-(4-methylpiperazin-1-yl)propoxy)benzenesulfonamide]
IC50 [1, 4]: > 10 µM | IC50 [2, 5]: < 1 µM | IC50 [2, 6]: < 1 µM | IC50 [3, 7]: < 1 µM | IC50 [3, 8]: < 1 µM

O=S(=O)(NCCCc1c[nH]c2ccc(Cl)cc12)c1ccc(CCCOc2ccncc2)cc1 [Example 185, N-(3-(5-chloro-1H-indole-3-yl)propyl)-4-(3-(pyridine-4-yloxy)propyl)benzenesulfonamide]
IC50 [1, 4]: > 10 µM | IC50 [2, 5]: < 1 µM | IC50 [2, 6]: < 1 µM | IC50 [3, 7]: > 10 µM

CN1CCN(CCCc2ccc(S(=O)(=O)NCCCc3c[nH]c4ccc(Cl)cc34)cc2)CC1 [Example 186, N-(3-(5-chloro-1H-indol-3-yl)propyl)-4-(3-(4-methylpiperazin-1-yl)propyl)benzenesulfonamide]
IC50 [1, 4]: > 10 µM | IC50 [2, 5]: < 1 µM | IC50 [2, 6]: < 1 µM | IC50 [3, 7]: < 1 µM | IC50 [3, 8]: < 1 µM

CN1CCN(CCCOc2ccc(S(=O)(=O)NCC3CCc4[nH]c5ccc(F)cc5c4C3)cc2)CC1 (centres unmarked) [Example 187, N-((6-fluoro-2,3,4,9-tetrahydro-1H-carbazol-3-yl)methyl)-4-(3-(4-methylpiperazin-1-yl)propoxy)benzenesulfonamide]
IC50 [1, 4]: > 10 µM | IC50 [2, 5]: < 1 µM | IC50 [2, 6]: < 1 µM | IC50 [3, 7]: < 1 µM | IC50 [3, 8]: < 1 µM
